Measured values taken from ChEMBL document CHEMBL1201862, “PubChem BioAssay data set” (2004).
Values joined by “and” are separate entries in the source; they are usually repeats but may differ in a detail not shown here. Identical values can stand only once. Active and inactive are the calls of the source. Rule as the data show it, for most assays here: actives have a measured EC50 and inactives only a lower limit.

What was measured:
[1] = inhibitors of intracellular T. cruzi replication, confirmation, NIH3T3 host cells, beta-gal luminescence (AID 2044); assay type: functional, cell-based;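 also: intracellular parasites grown in NIH/3T3 mouse fibroblasts as host cells; luminescent beta-galactosidase reporter signal from transgenic T. cruzi replicating inside host cells; inhibitors lower the luminescence signal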
[2] = cytotoxicity toward NIH3T3 fibroblasts, dose response, counter-screen, cell-based, ATP luminescence, mouse fibroblasts (AID 2010); assay type: functional;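 also: cells exposed to compound for about 90 hours before reading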
[3] = target: T1, Cytochrome P450 1A2 (Homo sapiens, UniProt P05177);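 also: PubChem cytochrome P450 panel assay, CYP1A2 panel member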
T1 sequence (P05177 whole entry): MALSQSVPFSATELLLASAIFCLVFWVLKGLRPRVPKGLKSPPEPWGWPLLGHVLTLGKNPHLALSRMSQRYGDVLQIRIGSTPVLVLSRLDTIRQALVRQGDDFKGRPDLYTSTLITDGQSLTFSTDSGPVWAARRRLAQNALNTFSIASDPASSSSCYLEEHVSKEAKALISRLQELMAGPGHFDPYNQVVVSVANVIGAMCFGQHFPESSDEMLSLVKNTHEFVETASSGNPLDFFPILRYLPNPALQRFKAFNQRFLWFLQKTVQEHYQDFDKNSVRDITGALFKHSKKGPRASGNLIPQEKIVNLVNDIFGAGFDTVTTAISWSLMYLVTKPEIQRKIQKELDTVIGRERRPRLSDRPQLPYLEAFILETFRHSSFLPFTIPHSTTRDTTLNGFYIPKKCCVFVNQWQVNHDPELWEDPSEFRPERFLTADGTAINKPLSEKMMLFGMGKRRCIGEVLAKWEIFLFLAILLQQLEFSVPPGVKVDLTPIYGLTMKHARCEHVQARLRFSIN

[4] = target: T2, Rac GTPase-activating protein 1 (Homo sapiens, UniProt Q9H0H5); assay: MgcRacGAP GTPase-activating activity inhibitors, confirmation, biochemical, ADP Hunter fluorescence, primary and confirmatory (AID 624330); assay type: functional
T2 sequence (Q9H0H5 whole entry): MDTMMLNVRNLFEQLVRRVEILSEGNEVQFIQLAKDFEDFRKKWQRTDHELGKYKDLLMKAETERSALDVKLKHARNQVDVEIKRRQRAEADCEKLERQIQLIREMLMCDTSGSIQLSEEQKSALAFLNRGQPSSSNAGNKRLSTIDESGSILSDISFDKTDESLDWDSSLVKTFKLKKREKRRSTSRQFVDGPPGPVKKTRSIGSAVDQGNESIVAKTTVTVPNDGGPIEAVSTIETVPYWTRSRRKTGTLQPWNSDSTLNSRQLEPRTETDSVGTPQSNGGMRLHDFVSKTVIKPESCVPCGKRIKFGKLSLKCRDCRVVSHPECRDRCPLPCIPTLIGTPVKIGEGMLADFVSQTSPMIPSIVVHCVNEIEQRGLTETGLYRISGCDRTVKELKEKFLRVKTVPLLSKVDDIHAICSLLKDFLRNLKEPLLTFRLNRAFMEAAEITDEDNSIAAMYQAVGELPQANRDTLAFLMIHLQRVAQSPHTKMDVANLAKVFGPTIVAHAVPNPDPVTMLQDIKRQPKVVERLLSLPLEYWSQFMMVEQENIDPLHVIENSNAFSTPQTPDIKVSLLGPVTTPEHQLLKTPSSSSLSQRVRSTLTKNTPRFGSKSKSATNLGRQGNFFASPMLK

[5] = target: T3, Streptokinase A (Streptococcus pyogenes serotype M1, UniProt P10520); assay: S. pyogenes streptokinase expression inhibitors, potency, dose response, plasminogen activation absorbance, OD405 (AID 1914); assay type: functional, Streptococcus pyogenes M1 GAS;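 also: secreted streptokinase activity via plasminogen activation per viability signal from cell pellet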
T3 sequence (P10520 whole entry): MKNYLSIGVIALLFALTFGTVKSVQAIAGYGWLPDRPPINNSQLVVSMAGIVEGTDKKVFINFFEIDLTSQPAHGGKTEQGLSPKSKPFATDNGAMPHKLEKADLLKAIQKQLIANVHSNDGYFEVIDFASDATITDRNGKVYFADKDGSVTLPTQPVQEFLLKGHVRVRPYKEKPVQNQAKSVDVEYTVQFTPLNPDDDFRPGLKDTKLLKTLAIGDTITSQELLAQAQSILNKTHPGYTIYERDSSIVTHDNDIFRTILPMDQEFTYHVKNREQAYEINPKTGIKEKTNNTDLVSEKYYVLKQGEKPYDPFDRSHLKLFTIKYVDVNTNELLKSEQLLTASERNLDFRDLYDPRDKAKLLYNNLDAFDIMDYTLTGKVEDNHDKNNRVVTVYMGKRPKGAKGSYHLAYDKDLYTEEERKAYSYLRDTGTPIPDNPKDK

[6] = system: Streptococcus; assay: Group A Streptococcus viability loss, dose response, counter-screen for streptokinase expression inhibitor project, luminescence, BacTiterGlo (AID 1915); assay type: functional, organism-based;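 also: potency for reduction of bacterial viability or growth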
[7] = system: Streptococcus sp. 'group A'; assay: growth inhibition of control SK(-) GAS strain, dose response, counter-screen for streptokinase expression inhibitor project, luminescence, kanamycin, BacTiterGlo, confirmation (AID 1900); assay type: functional, organism-based
[8] = Luminescence Cell-Based Dose Response HTS to Identify Activators of Luciferase Translation or Activity in H4 […] Cells. [Related pubchem assays: 1829 (Project Summary), 1814 (Primary HTS)]; assay type: functional

SMILES: COc1cccc(C(=O)C2CCCN(Cc3ccc(OC)c(Cn4cncn4)c3)C2)c1 (centres undefined)
- EC50 [1]: 0.398 µM (active)
- EC50 [2]: > 60 µM (not active)

SMILES: COc1cccc(/C=N/NC(=O)c2cccc([N+](=O)[O-])c2)c1OS(=O)(=O)c1ccc(C)cc1
- AC50 [3]: 6.31 µM (inconclusive)

SMILES: NS(=O)(=O)c1ccc(CCNCC(=O)N2CCC(Cc3ccccc3)CC2)cc1
- IC50 [4]: 283 µM (active)

SMILES: COc1ccc(CCC(=O)N2CCN(C3CCCCC3)CC2)cc1
- EC50 [1]: 1.53 µM (active)
- EC50 [2]: > 60 µM (not active)

SMILES: CCN1C(=O)c2ccc(C(=O)Nc3ccc(O)cc3C)cc2C1=O
- IC50 [4]: 108 µM (active)

SMILES: O=C(Nc1ccc(-c2csc(Nc3ccc(Cl)cc3)n2)cc1)c1cccc(C(F)(F)F)c1
- EC50 [1]: 1.76 µM (active)
- EC50 [2]: 7.75 µM (active)

SMILES: Cc1ccc(S(=O)(=O)N2CCC(C(=O)Nc3ccc(S(=O)(=O)N4CCCC4)cc3)CC2)cc1C
- EC50 [1]: 0.795 µM (active)
- EC50 [2]: > 30 µM (not active)

SMILES: CCC/C=C(\CCC)C(NS(=O)(=O)c1ccc(Cl)cc1)c1ccccc1 (centres undefined)
- AC50 [3]: 12.6 µM (inconclusive)

SMILES: CCOC(=O)C1(CCOc2ccccc2)CCN(Cc2cccc3nonc23)CC1
- EC50 [1]: 1.49 µM (active)
- EC50 [2]: > 60 µM (not active)

SMILES: COc1c(-c2ccc(O)c(O)c2)oc2cc(O)cc(O)c2c1=O [3-O-METHYLQUERCETIN]
- IC50 [4]: 30.3 µM (active)

SMILES: C[C@@H]1C[C@H](OC(=O)c2ccccc2O)CC(C)(C)C1
- AC50 [3]: 12.6 µM (inconclusive)

SMILES: O=C(NCCCN1CCN(CCCNC(=O)c2cccc([N+](=O)[O-])c2)CC1)c1cccc([N+](=O)[O-])c1
- EC50 [1]: 1.11 µM (active)
- EC50 [2]: > 30 µM (not active)

SMILES: N#CCCN1CCN(CCC#N)c2ccccc21
- IC50 [4]: 16.1 µM (active)

SMILES: COc1ccc(NC(=O)CN(C)C(=O)/C=C/c2cn(-c3ccccc3)nc2-c2ccc(F)cc2)cc1
- EC50 [5]: 53.8 µM (inconclusive)
- EC50 [6]: 68.1 µM (active)
- EC50 [7]: 26.5 µM (active)

SMILES: CC(CCN1CCN(CCO)CC1)c1ccccc1 (centres undefined)
- IC50 [4]: 153 µM (active)

SMILES: CC(C)/C=C1\CC/C(=C\c2cccnc2)C1=O
- EC50 [1]: 1.14 µM (active)
- EC50 [2]: > 60 µM (not active)

SMILES: O=C(NC1CCCC1)C(c1ccccc1)N(Cc1cccnc1)C(=O)Cc1cccs1 (centres undefined)
- EC50 [1]: 1.45 µM (active)
- EC50 [2]: > 60 µM (not active)

SMILES: COc1ccccc1-c1nnc(NC(=O)CCS(=O)(=O)c2ccccc2)o1
- EC50 [5]: > 150 µM (not active)
- EC50 [6]: > 150 µM (not active)
- EC50 [7]: > 150 µM (not active)

SMILES: Brc1ccc(OCc2ccccc2)c(CNCc2ccncc2)c1
- EC50 [1]: 0.802 µM (active)
- EC50 [2]: > 60 µM (not active)

SMILES: COc1cc(/C=N/NC(=O)c2nnn(-c3nonc3N)c2C(C)C)ccc1O
- IC50 [4]: 31 µM (active)

SMILES: CC(C)Sc1cc(N2CCCC2)nc(-c2ccccc2)n1
- EC50 [5]: 11.2 µM (active)
- EC50 [6]: > 150 µM (not active)
- EC50 [7]: 12.3 µM (active)

SMILES: COc1ccc(C(=O)NCC(=O)OCC(=O)N2N=C(c3ccc(Cl)cc3)CC2c2ccco2)cc1OC (centres undefined)
- EC50 [5]: > 150 µM (not active)
- EC50 [6]: > 150 µM (not active)
- EC50 [7]: 47 µM (active)

SMILES: CCOC(=O)c1[nH]c2ccccc2c1N=C(S)Nc1ccccc1C
- IC50 [4]: 65.9 µM (active)

SMILES: O=C(CSc1nc2nncc-2c(O)n1-c1ccc(Cl)c(Cl)c1)NCc1ccccc1Cl
- EC50 [1]: 2.43 µM (active)
- EC50 [2]: > 60 µM (inconclusive)

SMILES: CC(=O)Nc1ccc(OC(=O)c2cc3ccccc3oc2=O)cc1
- IC50 [4]: 23.2 µM (active)

SMILES: CC(C)(C)OC(=O)NCCCC[C@H](NC(=O)c1[nH]cnc1C(=O)Nc1ccc(Cl)cc1)C(=O)OC(C)(C)C
- EC50 [5]: > 150 µM (not active)
- EC50 [6]: 8.04 µM (active)
- EC50 [7]: 3.64 µM (active)

SMILES: COc1c(Cl)cc(Cl)cc1C(=O)Nc1ccc(NC(=O)c2cccs2)cc1
- EC50 [1]: 1.95 µM (active)
- EC50 [2]: > 60 µM (not active)

SMILES: Cc1ccc(NP(=O)(c2ccc(N(C)C)cc2NC(=O)c2cccs2)N2CCOCC2)cc1 (centres undefined)
- EC50 [1]: 1.49 µM (active)
- EC50 [2]: > 60 µM (not active)

SMILES: COc1ccc2c(c1)CC/C2=N\OC(=O)c1cccc(C)c1
- EC50 [8]: 0.105 µM (active)

SMILES: Nc1ccc(OCc2ccco2)cc1
- IC50 [4]: 49.8 µM (active)

SMILES: COc1ccc(CN2CCN(Cc3ccc4ccccc4c3)CC2)cc1OC
- IC50 [4]: 76.4 µM (active)

SMILES: O=C(NC(=S)N1CCCCC1c1cccnc1)c1ccc(F)cc1 (centres undefined)
- EC50 [5]: > 150 µM (not active)
- EC50 [6]: > 150 µM (not active)
- EC50 [7]: > 150 µM (not active)

SMILES: CCc1ccc2c(c1)C(c1ccc(N3CCOCC3)cc1)=NNC(c1ccncc1)=N2
- EC50 [1]: 1.5 µM (active)
- EC50 [2]: > 30 µM (not active)

SMILES: Fc1ccc(N2CCN(Cc3c[nH]c4ccccc34)CC2)cc1
- EC50 [1]: 0.69 µM (active)
- EC50 [2]: > 60 µM (not active)

SMILES: Cc1onc(-c2ccccc2Cl)c1C(=O)O/N=C(\N)c1ccccc1
- EC50 [1]: 2.34 µM (active)
- EC50 [2]: > 60 µM (not active)

SMILES: COc1ccc(NC(=O)c2ccc(NC(=O)CN3CCN(c4ccc(O)cc4)CC3)cc2)cc1
- IC50 [4]: 63 µM (active)

SMILES: C[C@H]1C=C2C=C[C@H](C)[C@H](CC[C@@H]3C[C@@H](O)CC(=O)O3)[C@H]2[C@@H](OC(=O)[C@@H](C)CCO)C1
- AC50 [3]: 31.6 µM (inconclusive)

SMILES: CCCCc1sc(-c2c(C#N)c(N)nc3c2CCCCC3)cc1[N+](=O)[O-]
- EC50 [1]: 1.98 µM (active)
- EC50 [2]: > 60 µM (not active)

SMILES: CN1CCC(N(C)CC(=O)Nc2ccc3c(c2)OC(F)(F)O3)CC1
- IC50 [4]: 65.9 µM (active)

SMILES: Cc1oc(-c2cc(Cl)cc(Cl)c2)cc1C(=O)NCCc1ccccc1
- EC50 [5]: 2.57 µM (active)
- EC50 [6]: 48.3 µM (active)
- EC50 [7]: 17.3 µM (active)

SMILES: CSc1ccc(/C=C2\CCn3c2nc2cc(C(=O)O)ccc2c3=O)cc1
- EC50 [5]: > 150 µM (not active)
- EC50 [6]: > 150 µM (not active)
- EC50 [7]: 23.1 µM (active)

SMILES: O=C1CCc2cc(OCCCCc3nnnn3C3CCCCC3)ccc2N1 [CILOSTAZOL]
- AC50 [3]: 39.8 µM (inconclusive)

SMILES: O=C(Nc1ccccc1N1CCCC1)c1ccc2c(c1)OCO2
- EC50 [5]: > 150 µM (not active)
- EC50 [6]: > 150 µM (not active)
- EC50 [7]: > 150 µM (not active)

SMILES: O=C(CCC1CCCN(Cc2ccncc2)C1)NCc1ccc(F)c(F)c1 (centres undefined)
- EC50 [1]: 0.661 µM (active)
- EC50 [2]: > 60 µM (not active)

SMILES: Cc1ccc(NC(=O)COc2ccc(CCO)cc2-n2nc3ccccc3n2)cc1C
- EC50 [1]: 1.61 µM (active)
- EC50 [2]: > 60 µM (inconclusive)

SMILES: CC(C)c1ccc(/C=N/N2CCCCC2)cc1
- IC50 [4]: 220 µM (active)

SMILES: CCN1CCN(c2ccc(S(=O)(=O)N3CCOCC3)cc2NC(=O)COc2ccc(F)cc2Cl)CC1
- EC50 [1]: 1.06 µM (active)
- EC50 [2]: 19.2 µM (active)

SMILES: CC(=O)CCCCn1c(=O)c2c(ncn2C)n(C)c1=O [PENTOXIFYLLINE]
- AC50 [3]: 12.6 µM (inconclusive)

SMILES: CCCN(CCC)[C@H]1CCc2c(F)ccc(O)c2C1
- AC50 [3]: 12.6 µM (inconclusive) and 25.1 µM (inconclusive)

SMILES: CC(C)c1ccc(/C=N/n2c(S)nnc2-c2ccccc2)cc1
- EC50 [5]: > 150 µM (not active)
- EC50 [6]: > 150 µM (not active)
- EC50 [7]: 18.3 µM (active)
